Where “and” joins values, the source holds several entries; their conditions need not be identical. Equal entries are not always repeated. Toxic doses and inconclusive results are not listed.
System: B6C3F1 mice, B16 melanoma ip, median survival T/C
Test: NCI In Vivo Anticancer Drug Screen. Data for tumor model B16 Melanoma (intraperitoneal) in B6C3F1 mice
Settings: endpoint: median survival time, higher = longer survival
How it was run: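 Antitumor effect was judged in mice with transplanted tumors by dividing the treated group's survival measure by that of vehicle controls.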

[1] = dose: 6.25 mg/kg/injection, schedule: Q01DX009 (ip), vehicle: distilled water + Tween-80
[2] = dose: 12.5 mg/kg/injection, schedule: Q01DX009 (ip), vehicle: saline
[3] = dose: 25.0 mg/kg/injection, schedule: Q01DX009 (ip), vehicle: saline
[4] = dose: 50.0 mg/kg/injection, schedule: Q01DX009 (ip), vehicle: saline
[5] = dose: 100.0 mg/kg/injection, schedule: Q01DX009 (ip), vehicle: saline
[6] = dose: 200.0 mg/kg/injection, schedule: Q01DX009 (ip), vehicle: saline
[7] = dose: 400.0 mg/kg/injection, schedule: Q01DX009 (ip), vehicle: saline
[8] = dose: 6.25 mg/kg/injection, schedule: Q01DX009 (ip), vehicle: Klucel (hydroxypropylcellulose) (HPC)
[9] = dose: 6.25 mg/kg/injection, schedule: Q01DX009 (ip), vehicle: saline with Tween-80
[10] = dose: 12.5 mg/kg/injection, schedule: Q01DX009 (ip), vehicle: Klucel (hydroxypropylcellulose) (HPC)
[11] = dose: 12.5 mg/kg/injection, schedule: Q01DX009 (ip), vehicle: saline with Tween-80
[12] = dose: 25.0 mg/kg/injection, schedule: Q01DX009 (ip), vehicle: Klucel (hydroxypropylcellulose) (HPC)
[13] = dose: 25.0 mg/kg/injection, schedule: Q01DX009 (ip), vehicle: saline with Tween-80
[14] = dose: 50.0 mg/kg/injection, schedule: Q01DX009 (ip), vehicle: Klucel (hydroxypropylcellulose) (HPC)
[15] = dose: 50.0 mg/kg/injection, schedule: Q01DX009 (ip), vehicle: saline with Tween-80
[16] = dose: 100.0 mg/kg/injection, schedule: Q01DX009 (ip), vehicle: Klucel (hydroxypropylcellulose) (HPC)
[17] = dose: 100.0 mg/kg/injection, schedule: Q01DX009 (ip), vehicle: saline with Tween-80
[18] = dose: 200.0 mg/kg/injection, schedule: Q01DX009 (ip), vehicle: saline with Tween-80
[19] = dose: 400.0 mg/kg/injection, schedule: Q01DX009 (ip), vehicle: saline with Tween-80
[20] = dose: 3.12 mg/kg/injection, schedule: Q01DX009 (ip), vehicle: saline with Tween-80
[21] = dose: 25.0 mg/kg/injection, schedule: Q01DX009 (ip), vehicle: water

COc1cccc2c1C(=O)c1c(O)c3c(c(O)c1C2=O)C[C@@](O)(C(=O)CO)C[C@@H]3OC1CC(OC(C)=O)C(OC(C)=O)C(C)O1 (stereo partly specified)
T/C [1]: 178 % of control
T/C (dose: 12.5 mg/kg/injection, schedule: Q01DX001 (ip), vehicle: distilled water + Tween-80): 150 % of control
T/C (dose: 25.0 mg/kg/injection, schedule: Q01DX001 (ip), vehicle: distilled water + Tween-80): 159 % of control and 195 % of control
T/C (dose: 50.0 mg/kg/injection, schedule: Q01DX001 (ip), vehicle: distilled water + Tween-80): 176 % of control and 202 % of control

Cc1ccccc1CN1C2=NCCN2C(=O)C2=C1CCN(S(=O)(=O)c1ccc(Cl)c(S(N)(=O)=O)c1)C2
T/C [2]: 101 % of control
T/C [3]: 101 % of control
T/C [4]: 95 % of control
T/C [5]: 90 % of control
T/C [6]: 92 % of control
T/C [7]: 90 % of control

S=C(S)NN1CCOCC1
T/C [5]: 98 % of control
T/C [6]: 99 % of control
T/C [7]: 96 % of control

CN=C(N)N/N=C(\C)c1ccc2c(c1)Cc1cc(/C(C)=N/NC(N)=NC)ccc1-2
T/C (dose: 0.75 mg/kg/injection, schedule: Q01DX009 (ip), vehicle: saline with Tween-80): 97 % of control
T/C (dose: 1.5 mg/kg/injection, schedule: Q01DX009 (ip), vehicle: saline with Tween-80): 101 % of control

Nc1ccc(S(=O)(=O)c2ccc(N)cc2)cc1
T/C [8]: 95 % of control
T/C [9]: 103 % of control
T/C [10]: 106 % of control
T/C [11]: 93 % of control
T/C [12]: 96 % of control
T/C [13]: 101 % of control
T/C [14]: 92 % of control
T/C [15]: 93 % of control and 100 % of control
T/C [16]: 90 % of control
T/C [17]: 87 % of control and 98 % of control
T/C [18]: 88 % of control
T/C [19]: 86 % of control

CC(C)NC(=O)OCc1c(COC(=O)NC(C)C)c(-c2ccc(Cl)c(Cl)c2)n2c1CC(OC(=O)CN(C)C)C2 (stereo unspecified)
T/C (dose: 10.0 mg/kg/injection, schedule: Q01DX009 (ip), vehicle: distilled water + Tween-80): 152 % of control and 153 % of control
T/C (dose: 20.0 mg/kg/injection, schedule: Q01DX009 (ip), vehicle: distilled water + Tween-80): 152 % of control and 168 % of control
T/C (dose: 40.0 mg/kg/injection, schedule: Q01DX009 (ip), vehicle: distilled water + Tween-80): 174 % of control and 190 % of control

NC(Cc1ccc(N(CCCl)Cc2ccccc2)cc1)C(=O)O (stereo unspecified)
T/C (dose: 0.78 mg/kg/injection, schedule: Q01DX009 (ip), vehicle: distilled water + Tween-80): 99 % of control
T/C (dose: 1.56 mg/kg/injection, schedule: Q01DX009 (ip), vehicle: distilled water + Tween-80): 108 % of control
T/C (dose: 3.12 mg/kg/injection, schedule: Q01DX009 (ip), vehicle: distilled water + Tween-80): 115 % of control and 100 % of control
T/C [1]: 123 % of control and 103 % of control
T/C (dose: 12.5 mg/kg/injection, schedule: Q01DX009 (ip), vehicle: distilled water + Tween-80): 110 % of control
T/C (dose: 25.0 mg/kg/injection, schedule: Q01DX009 (ip), vehicle: distilled water + Tween-80): 118 % of control

CC(=O)Nc1ccc(N=Nc2c(O)c(S(=O)(=O)O)cc3cc(S(=O)(=O)O)ccc23)cc1
T/C [15]: 111 % of control
T/C [17]: 100 % of control
T/C [18]: 98 % of control

CC1c2ccccc2CC(CCN(C)C)c2ccccc21 (stereo unspecified)
T/C [9]: 104 % of control
T/C [11]: 98 % of control
T/C [13]: 99 % of control
T/C [15]: 95 % of control

Nc1nc(N)c2c(Cl)c(CNc3ccc(Cl)c(Cl)c3)ccc2n1
T/C [20]: 121 % of control
T/C [9]: 106 % of control
T/C [11]: 123 % of control

C/C(=N\NC(=S)N1CCN(c2ccccn2)CC1)c1ccccn1
T/C (dose: 6.25 mg/kg/injection, schedule: Q01DX009 (ip), vehicle: water): 99 % of control
T/C (dose: 12.5 mg/kg/injection, schedule: Q01DX009 (ip), vehicle: water): 99 % of control
T/C [21]: 111 % of control

NCCC(=O)NC(Cc1cnc[nH]1)C(=O)O (stereo unspecified)
T/C [4]: 102 % of control
T/C [5]: 104 % of control
T/C [6]: 103 % of control
T/C [7]: 104 % of control

CN(C)c1nc(N(C)C)nc(N(C)C)n1
T/C [11]: 88 % of control

S=c1[nH]cc2cnccn12
T/C [11]: 94 % of control and 95 % of control
T/C [13]: 93 % of control and 98 % of control
T/C [15]: 93 % of control and 96 % of control
T/C [17]: 97 % of control and 100 % of control
T/C [18]: 91 % of control and 92 % of control
T/C [19]: 97 % of control

CN(C)N=Nc1ccnc2ccc(Br)cc12
T/C (dose: 3.13 mg/kg/injection, schedule: Q01DX009 (ip), vehicle: other): 109 % of control
T/C (dose: 6.25 mg/kg/injection, schedule: Q01DX009 (ip), vehicle: other): 114 % of control
T/C (dose: 12.5 mg/kg/injection, schedule: Q01DX009 (ip), vehicle: other): 110 % of control
T/C (dose: 25.0 mg/kg/injection, schedule: Q01DX009 (ip), vehicle: other): 114 % of control
T/C (dose: 50.0 mg/kg/injection, schedule: Q01DX009 (ip), vehicle: other): 115 % of control

O=c1[nH]cnc2c1nnn2C1OC(CO)C(O)C1O (stereo unspecified)
T/C [3]: 96 % of control and 101 % of control
T/C [4]: 116 % of control and 92 % of control
T/C [5]: 104 % of control
T/C [6]: 100 % of control

CCN(CC)c1ccc2cc(-c3nc4ccccc4n3C)c(=O)oc2c1
T/C [8]: 94 % of control and 101 % of control
T/C [10]: 102 % of control and 106 % of control
T/C [12]: 108 % of control and 111 % of control

COc1cc2cc3cc4cc(OC)c(OC)cc4c(C)[n+]3cc2cc1OC (tested in a mixture with another compound)
T/C [2]: 106 % of control
T/C [3]: 100 % of control
T/C [4]: 100 % of control
T/C [5]: 90 % of control

COc1cc2c(c(OC)c1O)-c1ccc(SC)c(=O)cc1C(NC(C)=O)CC2 (stereo unspecified)
T/C (dose: 2.5 mg/kg/injection, schedule: Q01DX009 (ip), vehicle: water): 119 % of control
T/C (dose: 5.0 mg/kg/injection, schedule: Q01DX009 (ip), vehicle: water): 119 % of control
T/C (dose: 10.0 mg/kg/injection, schedule: Q01DX009 (ip), vehicle: water): 116 % of control
T/C (dose: 20.0 mg/kg/injection, schedule: Q01DX009 (ip), vehicle: water): 119 % of control
T/C (dose: 40.0 mg/kg/injection, schedule: Q01DX009 (ip), vehicle: water): 122 % of control

Cc1cc(NC(=S)SCc2ccc3c(c2)OCO3)ccc1Cl
T/C [14]: 103 % of control
T/C [16]: 112 % of control

CCCCCCCCCCCCCCCC(=O)OCC1OC(n2ccc(N)nc2=O)C(O)C1O (stereo unspecified)
T/C (dose: 3.75 mg/kg/injection, schedule: Q01DX009 (ip), vehicle: saline with Tween-80): 117 % of control
T/C (dose: 7.5 mg/kg/injection, schedule: Q01DX009 (ip), vehicle: saline with Tween-80): 113 % of control and 121 % of control

CCN1CSC(=S)N(CC)C1
T/C [13]: 94 % of control
T/C [15]: 94 % of control
T/C [17]: 91 % of control

O=C(Nc1ccc(Cl)c(Cl)c1)Nc1c(Oc2ccc(Cl)c(Cl)c2)ccc(Cl)c1S(=O)(=O)O
T/C [9]: 99 % of control
T/C [11]: 101 % of control
T/C [13]: 97 % of control
T/C [15]: 99 % of control
T/C [17]: 97 % of control
T/C [18]: 99 % of control

ClC(Cl)(Cl)Sn1cccn1
T/C [20]: 103 % of control
T/C [9]: 87 % of control
T/C [4]: 87 % of control

CCCCCC1c2cc(O)ccc2OC1N1CCOCC1 (stereo unspecified)
T/C (dose: 6.0 mg/kg/injection, schedule: Q01DX009 (ip), vehicle: saline with Tween-80): 90 % of control
T/C (dose: 12.0 mg/kg/injection, schedule: Q01DX009 (ip), vehicle: saline with Tween-80): 103 % of control
T/C [11]: 106 % of control
T/C [13]: 96 % of control and 107 % of control
T/C [15]: 98 % of control and 102 % of control
T/C [17]: 94 % of control and 106 % of control
T/C [18]: 96 % of control and 97 % of control

Nc1ccc(C(OC(=O)c2cc3ccccc3c(Cc3c(O)c(C(=O)OC(c4ccc(N)cc4)(c4ccc(N)cc4)c4ccc(N)cc4)cc4ccccc34)c2O)(c2ccc(N)cc2)c2ccc(N)cc2)cc1
T/C (dose: 0.78 mg/kg/injection, schedule: Q01DX009 (ip), vehicle: saline with Tween-80): 112 % of control and 96 % of control
T/C [20]: 111 % of control and 107 % of control
T/C (dose: 3.13 mg/kg/injection, schedule: Q01DX009 (ip), vehicle: saline with Tween-80): 104 % of control

O=C(NO)c1cc(O)c(O)c(O)c1
T/C [21]: 100 % of control
T/C (dose: 50.0 mg/kg/injection, schedule: Q01DX009 (ip), vehicle: water): 105 % of control
T/C (dose: 100.0 mg/kg/injection, schedule: Q01DX009 (ip), vehicle: water): 114 % of control
T/C (dose: 200.0 mg/kg/injection, schedule: Q01DX009 (ip), vehicle: water): 118 % of control

Source: PubChem BioAssay AID200 (DTP/NCI, 2004)
